ChEMBL document CHEMBL1201862, “PubChem BioAssay data set” (2004)
Calls of active or inactive are those of the source.

Experiments:
[1] = molecular target: Female germline-specific tumor suppressor gld-1 (Caenorhabditis elegans, UniProt Q17339); experiment: blockers of GLD-1/TGE RNA complex formation – biochemical, fluorescence polarization, C. elegans, dose response (AID 2802);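 also: fluorescence polarization of labeled TGE RNA bound by purified gld-1 protein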
Genome polyprotein = Genome polyprotein (Hepatitis C virus, UniProt Q2Q167); experiment: disruption of hepatitis C core self-association – biochemical, TR-FRET, dose response (AID 2159); parameters: species or system Hepacivirus hominis;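 also: blocks dimerization of HCV core protein measured by TR-FRET between tagged core106 pairs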
Sequence of Genome polyprotein (Q2Q167 whole entry): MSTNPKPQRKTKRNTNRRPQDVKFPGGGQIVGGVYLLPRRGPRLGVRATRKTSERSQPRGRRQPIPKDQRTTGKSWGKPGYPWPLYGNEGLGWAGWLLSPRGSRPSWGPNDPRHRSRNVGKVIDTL

[2] = molecular target: Eukaryotic translation initiation factor 4E (Mus musculus, UniProt P63073); experiment: blockers of eIF4G binding by eIF4E – biochemical, TR-FRET, dose response (AID 855); assay type: functional;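 also: potency for disrupting eIF4E binding to eIF4GI seen as loss of FRET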
Sequence of Eukaryotic translation initiation factor 4E (P63073 whole entry): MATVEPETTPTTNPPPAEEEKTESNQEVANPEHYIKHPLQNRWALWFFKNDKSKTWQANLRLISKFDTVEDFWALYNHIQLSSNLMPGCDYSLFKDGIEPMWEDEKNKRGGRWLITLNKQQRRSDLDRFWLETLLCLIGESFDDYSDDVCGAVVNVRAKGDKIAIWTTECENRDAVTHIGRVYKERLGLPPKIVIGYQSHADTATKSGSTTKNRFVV

Protein Rev = Protein Rev (Human immunodeficiency virus type 1 group M subtype B (isolate HXB2)(HIV-1), UniProt P04618); experiment: blockers of HIV Rev/RRE RNA complex – biochemical, fluorescence polarization, HIV-1, dose response (AID 434976); parameters: species or system Human immunodeficiency virus 1
Sequence of Protein Rev (P04618 whole entry): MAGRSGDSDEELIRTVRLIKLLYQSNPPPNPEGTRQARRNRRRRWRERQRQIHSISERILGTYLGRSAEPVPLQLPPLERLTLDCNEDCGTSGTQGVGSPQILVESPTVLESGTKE

[3] = microbe, parasite or virus in culture; assay type: functional; conditions: Mycobacterium tuberculosis
Vero [4] = experiment: Vero cell viability after compound exposure – synthesized analogs, set II, cytotoxicity control for West Nile virus antiviral project, SAR follow-up (AID 2402); assay type: functional; conditions: Chlorocebus sabaeus
Vero [5] = experiment: host cell viability loss, Vero E6 – synthesized analogs, cytotoxicity control for West Nile virus antiviral project, SAR follow-up (AID 2244); assay type: functional; conditions: Chlorocebus sabaeus
Vero [6] = experiment: Vero 76 cell viability after compound exposure – Vero 76 cells, synthesized analogs, cytotoxicity control for West Nile virus antiviral project, SAR follow-up (AID 2414); assay type: functional; conditions: Chlorocebus sabaeus
Vero [7] = experiment: antiviral protection of cells from WNV – synthesized analogs, SAR follow-up (AID 2238); assay type: functional, cell-based; conditions: Chlorocebus sabaeus
INS1 = experiment: INS-1E survival protection against cytokine death – cell-based, luminescence, retest, dose response (AID 449756); assay type: functional; conditions: Rattus norvegicus;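 also: cell death triggered by IL-1 beta plus TNF-alpha plus IFN-gamma mixture; protective hits raise ATP signal compared with cytokine alone wells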
BJ = experiment: growth inhibition of engineered Ras-driven BJ cells – cell-based, alamar blue fluorescence, cherrypicked samples, dose response (AID 2631); assay type: functional; conditions: Homo sapiens;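 also: confirmatory dose-response assay in RAS-dependent BJ fibroblasts engineered with TERT, LT and ST, with cytotoxicity read by fluorescence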
[8] = viability of HCT116 lacking mutant beta-catenin – cell-based, human colon tumor, dose response (AID 1045); assay type: functional;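 also: HCT116 colon tumor cells with beta catenin knocked out; cells exposed to compound for 60 hours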
[9] = molecular target: G-protein coupled receptor 35 (Homo sapiens, UniProt Q9HC97); experiment: inhibition of zaprinast-stimulated GPR35 beta-arrestin translocation – imaging, U2OS, beta-arrestin-GFP, zaprinast agonist, primary screen (AID 2058); assay type: functional;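 also: antagonist potency meaning inhibition of agonist-induced arrestin redistribution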
[10] = molecular target: T1, Replicative DNA helicase DnaB (Mycobacterium tuberculosis, UniProt P9WMR3); experiment: DnaB intein splicing inhibitors, dose response, biochemical, cell-free fluorescence (AID 449749); assay type: functional
T1 sequence (P9WMR3 whole entry): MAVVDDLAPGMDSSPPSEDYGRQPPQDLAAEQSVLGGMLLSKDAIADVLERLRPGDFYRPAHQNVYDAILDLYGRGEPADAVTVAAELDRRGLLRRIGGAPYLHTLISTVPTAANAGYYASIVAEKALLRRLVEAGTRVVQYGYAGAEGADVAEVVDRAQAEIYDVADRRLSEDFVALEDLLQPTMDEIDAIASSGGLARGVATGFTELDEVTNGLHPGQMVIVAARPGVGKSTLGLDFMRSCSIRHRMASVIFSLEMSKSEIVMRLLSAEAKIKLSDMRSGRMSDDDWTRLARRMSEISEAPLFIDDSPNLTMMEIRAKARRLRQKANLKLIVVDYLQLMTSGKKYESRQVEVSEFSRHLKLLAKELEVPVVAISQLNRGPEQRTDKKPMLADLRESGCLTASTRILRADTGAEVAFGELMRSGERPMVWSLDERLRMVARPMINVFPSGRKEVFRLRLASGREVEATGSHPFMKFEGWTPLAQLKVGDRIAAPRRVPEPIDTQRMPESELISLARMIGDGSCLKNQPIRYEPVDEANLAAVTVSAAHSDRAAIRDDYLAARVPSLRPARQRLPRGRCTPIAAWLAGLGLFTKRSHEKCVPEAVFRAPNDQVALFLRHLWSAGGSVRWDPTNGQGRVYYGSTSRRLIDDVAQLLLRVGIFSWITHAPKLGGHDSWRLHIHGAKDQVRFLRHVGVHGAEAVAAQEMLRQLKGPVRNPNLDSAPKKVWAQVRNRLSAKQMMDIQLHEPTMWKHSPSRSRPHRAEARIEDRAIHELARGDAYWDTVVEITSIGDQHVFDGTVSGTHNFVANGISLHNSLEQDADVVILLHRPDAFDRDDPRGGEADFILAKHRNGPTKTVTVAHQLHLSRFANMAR

[11] = viability of PTEN-deleted HCT116 cells – cell-based, HCT116 PTEN knockout, dose response (AID 1047); assay type: functional;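 also: HCT116 colon tumor cells with PTEN knocked out; cells exposed to compound for 60 hours before readout; potency for loss of cell viability measured by luminescence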
Protein RecA = molecular target: T2, Protein RecA (Mycobacterium tuberculosis, UniProt P9WHJ3); experiment: Fluorescence Cell-Free Homogeneous Dose Retest to Identify Inhibitors of RecA-Intein Splicing Activity. [Related pubchem assays (depositor defined):AID2097, AID2223, AID489010, AID492950]; assay type: functional
T2 sequence (P9WHJ3 whole entry): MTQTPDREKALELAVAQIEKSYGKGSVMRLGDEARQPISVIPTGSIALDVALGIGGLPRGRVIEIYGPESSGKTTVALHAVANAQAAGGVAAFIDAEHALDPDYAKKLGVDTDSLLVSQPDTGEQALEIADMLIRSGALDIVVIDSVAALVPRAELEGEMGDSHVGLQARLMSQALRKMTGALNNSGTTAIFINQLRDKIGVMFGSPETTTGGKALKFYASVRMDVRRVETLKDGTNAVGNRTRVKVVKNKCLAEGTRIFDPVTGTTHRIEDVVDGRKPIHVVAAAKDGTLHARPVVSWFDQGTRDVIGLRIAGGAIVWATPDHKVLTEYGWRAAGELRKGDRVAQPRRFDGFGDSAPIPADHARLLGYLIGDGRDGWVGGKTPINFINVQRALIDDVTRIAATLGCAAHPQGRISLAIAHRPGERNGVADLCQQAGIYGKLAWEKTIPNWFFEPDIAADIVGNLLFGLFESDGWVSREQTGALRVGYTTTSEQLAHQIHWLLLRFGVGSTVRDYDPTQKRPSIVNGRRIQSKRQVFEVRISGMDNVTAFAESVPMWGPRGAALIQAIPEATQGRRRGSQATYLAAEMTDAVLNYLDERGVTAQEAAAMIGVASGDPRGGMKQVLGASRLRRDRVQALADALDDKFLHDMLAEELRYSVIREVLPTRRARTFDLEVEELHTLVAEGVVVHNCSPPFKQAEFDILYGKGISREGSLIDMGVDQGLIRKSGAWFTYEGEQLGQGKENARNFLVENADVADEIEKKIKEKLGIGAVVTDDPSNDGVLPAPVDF

Paired box protein Pax-8 = Paired box protein Pax-8 (Homo sapiens, UniProt Q06710); experiment: PAX8 transcriptional activity inhibition in RMG-I – RMG-I cells, luciferase, cherry-pick, dose response (AID 687027); assay type: functional, cell-based;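 also: luciferase reporter driven by Pax8 target thyroperoxidase promoter measured by SteadyGlo luminescence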
Sequence of Paired box protein Pax-8 (Q06710 whole entry): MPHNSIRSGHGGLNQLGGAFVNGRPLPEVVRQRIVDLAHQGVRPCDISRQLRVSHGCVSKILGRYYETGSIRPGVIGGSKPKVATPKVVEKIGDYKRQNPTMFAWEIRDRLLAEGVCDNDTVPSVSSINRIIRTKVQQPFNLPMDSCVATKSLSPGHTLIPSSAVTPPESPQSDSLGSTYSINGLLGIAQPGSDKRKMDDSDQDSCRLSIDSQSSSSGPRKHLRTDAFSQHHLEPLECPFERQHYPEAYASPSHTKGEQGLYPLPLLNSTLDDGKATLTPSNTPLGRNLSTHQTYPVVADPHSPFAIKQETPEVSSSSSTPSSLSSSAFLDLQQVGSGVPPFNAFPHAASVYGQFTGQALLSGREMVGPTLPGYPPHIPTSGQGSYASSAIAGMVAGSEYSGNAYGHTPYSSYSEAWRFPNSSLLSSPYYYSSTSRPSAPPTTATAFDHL

[12] = molecular target: G-protein coupled receptor 55 (Homo sapiens, UniProt Q9Y2T6); experiment: selective activators of receptor GPR55 – imaging, U2OS cells, beta-arrestin-GFP redistribution, primary screen (AID 1961); assay type: functional
Sequence of G-protein coupled receptor 55 (Q9Y2T6 whole entry): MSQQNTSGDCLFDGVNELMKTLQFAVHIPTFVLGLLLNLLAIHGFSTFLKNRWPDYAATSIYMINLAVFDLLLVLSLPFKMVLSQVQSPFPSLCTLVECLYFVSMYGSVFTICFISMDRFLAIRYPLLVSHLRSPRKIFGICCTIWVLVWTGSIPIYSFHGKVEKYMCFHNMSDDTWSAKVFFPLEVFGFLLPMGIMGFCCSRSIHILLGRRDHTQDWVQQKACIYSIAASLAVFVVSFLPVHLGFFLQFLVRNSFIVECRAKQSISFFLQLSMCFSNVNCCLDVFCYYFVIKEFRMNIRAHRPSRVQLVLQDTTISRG

[13] = molecular target: Intestinal-type alkaline phosphatase (Homo sapiens, UniProt P09923); experiment: Dose Response confirmation of uHTS hits from a small molecule inhibitors of human intestinal alkaline phosphatase via a luminescent assay. [Related pubchem assays (depositor defined):AID2544, AID2574]; assay type: functional
Sequence of Intestinal-type alkaline phosphatase (P09923 whole entry): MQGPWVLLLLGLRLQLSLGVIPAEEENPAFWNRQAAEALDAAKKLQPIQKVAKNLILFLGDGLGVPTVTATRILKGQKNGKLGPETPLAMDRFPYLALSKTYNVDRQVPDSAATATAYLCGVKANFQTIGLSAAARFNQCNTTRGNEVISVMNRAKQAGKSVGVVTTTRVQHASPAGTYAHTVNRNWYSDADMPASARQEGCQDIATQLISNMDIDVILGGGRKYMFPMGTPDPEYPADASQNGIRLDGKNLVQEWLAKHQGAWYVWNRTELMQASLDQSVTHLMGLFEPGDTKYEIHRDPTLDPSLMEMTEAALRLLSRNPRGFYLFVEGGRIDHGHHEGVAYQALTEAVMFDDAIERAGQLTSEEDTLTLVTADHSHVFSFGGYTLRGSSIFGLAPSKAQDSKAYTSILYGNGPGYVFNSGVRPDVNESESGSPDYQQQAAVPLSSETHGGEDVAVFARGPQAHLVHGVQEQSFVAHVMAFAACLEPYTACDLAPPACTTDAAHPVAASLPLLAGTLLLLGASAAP

[14] = Late stage results from the probe development effort to identify inhibitors of the protein methylesterase PME-1: Luminescence-based counterscreen assay to identify cytotoxic compounds.; assay type: functional
[15] = molecular target: Acylamino-acid-releasing enzyme (Homo sapiens, UniProt P13798); experiment: endogenous PME-1 and serine hydrolase inhibition – cell lysate, mouse brain cytosol, FP-rhodamine, gel ABPP, selectivity assay for PME-1 inhibitor project, dose response, panel member APEH Assay Panel member description: Inhibition of N-acylaminoacyl-peptide hydrolase (APEH) (anti-target) (AID 2366)
Sequence of Acylamino-acid-releasing enzyme (P13798 whole entry): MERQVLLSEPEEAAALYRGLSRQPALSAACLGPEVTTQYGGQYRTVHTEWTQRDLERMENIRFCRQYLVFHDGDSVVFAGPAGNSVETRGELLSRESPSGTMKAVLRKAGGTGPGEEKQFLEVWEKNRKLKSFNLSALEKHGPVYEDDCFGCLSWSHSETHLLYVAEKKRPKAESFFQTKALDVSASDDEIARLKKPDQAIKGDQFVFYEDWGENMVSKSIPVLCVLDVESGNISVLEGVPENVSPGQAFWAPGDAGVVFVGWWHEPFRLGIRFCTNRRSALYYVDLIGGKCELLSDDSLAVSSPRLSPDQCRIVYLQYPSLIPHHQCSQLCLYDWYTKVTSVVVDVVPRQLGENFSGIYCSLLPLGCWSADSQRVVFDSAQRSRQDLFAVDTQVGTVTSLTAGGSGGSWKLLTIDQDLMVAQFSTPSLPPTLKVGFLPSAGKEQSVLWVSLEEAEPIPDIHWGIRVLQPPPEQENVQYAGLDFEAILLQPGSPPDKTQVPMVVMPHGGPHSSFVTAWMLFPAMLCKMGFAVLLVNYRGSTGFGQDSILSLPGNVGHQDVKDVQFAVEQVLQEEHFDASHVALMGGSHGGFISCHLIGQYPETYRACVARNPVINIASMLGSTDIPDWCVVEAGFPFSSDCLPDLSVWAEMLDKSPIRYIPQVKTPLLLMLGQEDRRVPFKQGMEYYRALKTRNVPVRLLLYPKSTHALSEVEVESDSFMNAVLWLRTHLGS

Beta-galactosidase = Beta-galactosidase (Escherichia coli, UniProt Q8VNN2); experiment: detection-enzyme interference by beta-gal modulators – biochemical, E. coli enzyme, set 3, artefact control for CCR6 antagonist project, dose response (AID 504712); assay type: functional
[16] = loss of viability in HepG2 cells – cell-based, CellTiter-Glo, cherry-picked, cytotoxicity control for Shn3 inhibitor project, dose response (AID 624134); assay type: functional
[17] = reduction of Shn3 3'UTR-driven luciferase in osteoblasts – cell-based, Clone20 osteoblasts, firefly luciferase, cherry-picked, dose response (AID 624132); assay type: functional;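 also: firefly luciferase luminescence from reporter carrying the Shn3 3'UTR in osteoblasts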
[18] = non-specific 3'UTR reporter inhibition in Clone20-Shn3RL – cell-based, Renilla luciferase, cherry-picked, counter-screen for Shn3 inhibitor project, dose response (AID 624133); assay type: functional
[19] = molecular target: Polyadenylate-binding protein 1 (Homo sapiens, UniProt P11940); experiment: PABP inhibition in translation initiation, SAR follow-up (AID 435018); assay type: functional
Sequence of Polyadenylate-binding protein 1 (P11940 whole entry): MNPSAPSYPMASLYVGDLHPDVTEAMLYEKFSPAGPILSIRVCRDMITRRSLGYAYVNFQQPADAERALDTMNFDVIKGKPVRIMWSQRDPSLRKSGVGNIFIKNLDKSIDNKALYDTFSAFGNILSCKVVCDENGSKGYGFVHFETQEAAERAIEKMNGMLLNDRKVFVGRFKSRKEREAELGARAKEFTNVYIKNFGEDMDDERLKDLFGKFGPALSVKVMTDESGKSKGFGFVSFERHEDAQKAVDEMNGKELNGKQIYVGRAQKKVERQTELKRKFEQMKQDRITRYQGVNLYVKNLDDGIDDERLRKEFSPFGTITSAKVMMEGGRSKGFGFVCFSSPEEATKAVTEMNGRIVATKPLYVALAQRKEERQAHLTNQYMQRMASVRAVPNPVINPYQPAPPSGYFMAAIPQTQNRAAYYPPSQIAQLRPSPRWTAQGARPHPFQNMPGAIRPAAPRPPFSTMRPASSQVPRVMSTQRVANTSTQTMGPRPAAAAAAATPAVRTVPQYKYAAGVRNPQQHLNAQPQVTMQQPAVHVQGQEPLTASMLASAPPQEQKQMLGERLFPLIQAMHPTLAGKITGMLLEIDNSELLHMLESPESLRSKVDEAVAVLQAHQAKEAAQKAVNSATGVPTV

[20] = molecular target: Eukaryotic translation initiation factor 4H (Homo sapiens, UniProt Q15056); experiment: inhibitors of translation initiation factor eIF4H – SAR follow-up (AID 435011); assay type: functional
[21] = molecular target: Phosphoethanolamine/phosphocholine phosphatase (Homo sapiens, UniProt Q8TCT1); experiment: SAR assay for compounds that inhibit PHOSPHO1. [Related pubchem assays (depositor defined):AID1545, AID1565, AID1574]
Sequence of Phosphoethanolamine/phosphocholine phosphatase (Q8TCT1 whole entry): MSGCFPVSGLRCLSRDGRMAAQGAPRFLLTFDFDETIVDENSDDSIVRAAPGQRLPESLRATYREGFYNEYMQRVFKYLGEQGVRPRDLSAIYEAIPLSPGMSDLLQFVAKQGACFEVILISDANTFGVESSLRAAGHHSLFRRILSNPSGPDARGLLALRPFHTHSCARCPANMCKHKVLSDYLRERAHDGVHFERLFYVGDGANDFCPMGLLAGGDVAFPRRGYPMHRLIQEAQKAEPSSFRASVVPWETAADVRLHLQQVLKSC

Phosphomannomutase 2 = Phosphomannomutase 2 (Homo sapiens, UniProt O15305); experiment: Counter screen SAR assay for PMM2 inhibitors via a fluorescence intensity assay. [Related pubchem assays (depositor defined):AID1545, AID1574]
Sequence of Phosphomannomutase 2 (O15305 whole entry): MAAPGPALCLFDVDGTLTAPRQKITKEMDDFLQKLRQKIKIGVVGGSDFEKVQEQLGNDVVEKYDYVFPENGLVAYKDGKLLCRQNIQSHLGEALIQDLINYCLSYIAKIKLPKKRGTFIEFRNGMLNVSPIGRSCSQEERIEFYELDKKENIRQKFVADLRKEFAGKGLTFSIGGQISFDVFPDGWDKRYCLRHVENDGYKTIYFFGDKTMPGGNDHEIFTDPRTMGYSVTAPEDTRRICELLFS

[22] = molecular target: T3, Mannose-6-phosphate isomerase (Homo sapiens, UniProt P34949); experiment: phosphomannose isomerase inhibition – biochemical, fluorescence intensity, confirmation (AID 1535)
T3 sequence (P34949 whole entry): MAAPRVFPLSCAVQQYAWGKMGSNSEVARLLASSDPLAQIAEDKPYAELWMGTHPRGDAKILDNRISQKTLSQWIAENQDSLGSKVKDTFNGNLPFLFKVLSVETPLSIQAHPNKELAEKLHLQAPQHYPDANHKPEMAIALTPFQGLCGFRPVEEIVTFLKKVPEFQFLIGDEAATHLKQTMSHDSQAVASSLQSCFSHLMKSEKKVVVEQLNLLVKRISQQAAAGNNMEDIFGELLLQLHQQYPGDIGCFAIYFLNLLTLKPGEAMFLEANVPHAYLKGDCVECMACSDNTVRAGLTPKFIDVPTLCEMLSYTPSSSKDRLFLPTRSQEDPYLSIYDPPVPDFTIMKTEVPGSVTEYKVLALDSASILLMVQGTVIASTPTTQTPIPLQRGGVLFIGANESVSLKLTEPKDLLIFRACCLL

[23] = molecular target: T4, Neuropeptides B/W receptor type 1 (Homo sapiens, UniProt P48145); experiment: human NPBW1 receptor blockade, IC50 – cell-based, fluorescence, dose response, late-stage follow-up (AID 463251); assay type: functional
T4 sequence (P48145 whole entry): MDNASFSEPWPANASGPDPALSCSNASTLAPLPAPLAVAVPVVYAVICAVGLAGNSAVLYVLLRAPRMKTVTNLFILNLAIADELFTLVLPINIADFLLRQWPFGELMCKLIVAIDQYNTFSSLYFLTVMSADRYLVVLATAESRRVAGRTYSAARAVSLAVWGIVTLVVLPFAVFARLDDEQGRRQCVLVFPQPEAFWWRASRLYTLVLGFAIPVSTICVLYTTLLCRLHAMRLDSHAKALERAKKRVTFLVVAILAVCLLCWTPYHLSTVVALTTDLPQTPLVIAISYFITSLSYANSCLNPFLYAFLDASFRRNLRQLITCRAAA

[24] = molecular target: Melanin-concentrating hormone receptor 1 (Homo sapiens, UniProt Q99705); experiment: Late-stage fluorescence-based counterscreen for antagonists of the G-protein coupled receptor 7 (GPR7): cell-based dose response assay to identify antagonists of the melanin-concentrating hormone receptor 1 (MCHR1). [Related pubchem assays (depositor defined):AID1861, AID1880, AID1952, AID2148, AID2251, AID2257, AID485339]; assay type: functional;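 also: stimulated with 30 nM MCH peptide agonist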
Sequence of Melanin-concentrating hormone receptor 1 (Q99705 whole entry): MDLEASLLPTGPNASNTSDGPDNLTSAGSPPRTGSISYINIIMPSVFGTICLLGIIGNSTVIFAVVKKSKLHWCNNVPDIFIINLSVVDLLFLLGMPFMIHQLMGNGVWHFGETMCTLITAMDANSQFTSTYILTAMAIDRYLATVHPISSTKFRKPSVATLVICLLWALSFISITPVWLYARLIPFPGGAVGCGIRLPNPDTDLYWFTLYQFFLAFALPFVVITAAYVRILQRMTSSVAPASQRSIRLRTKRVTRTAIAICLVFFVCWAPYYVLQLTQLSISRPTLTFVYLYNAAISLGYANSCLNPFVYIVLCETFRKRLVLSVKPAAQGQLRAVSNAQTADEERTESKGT

Sequence of Female germline-specific tumor suppressor gld-1 (Q17339 whole entry): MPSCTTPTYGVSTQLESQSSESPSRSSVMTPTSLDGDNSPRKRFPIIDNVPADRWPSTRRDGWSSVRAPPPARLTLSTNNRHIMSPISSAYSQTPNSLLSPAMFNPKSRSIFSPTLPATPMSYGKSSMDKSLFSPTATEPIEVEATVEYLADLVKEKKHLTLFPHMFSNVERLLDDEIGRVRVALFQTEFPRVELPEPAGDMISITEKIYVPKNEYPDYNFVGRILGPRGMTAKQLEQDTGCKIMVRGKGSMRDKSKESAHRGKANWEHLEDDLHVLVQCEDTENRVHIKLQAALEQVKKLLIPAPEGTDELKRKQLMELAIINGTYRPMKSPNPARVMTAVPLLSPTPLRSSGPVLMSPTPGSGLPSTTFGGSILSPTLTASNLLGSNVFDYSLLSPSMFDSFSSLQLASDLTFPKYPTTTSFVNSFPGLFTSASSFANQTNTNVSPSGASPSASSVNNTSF

## CC1=CC(=O)c2c(O)ccc(O)c2C1=O
[1]
  IC50: 5.58 µM (active)
Genome polyprotein
  IC50: > 49.8 µM (not active)
[2]
  IC50: 10.3 µM (active)
Protein Rev
  IC50: > 75.4 µM (not active)
[3]
  CC50: 12.9 µM (active)

## O=C(CSc1nc2ccccc2c(=O)n1-c1ccc(Cl)c(Cl)c1)Nc1ccc2c(c1)CCC2
Vero [4]
  CC50: > 100 µM (active)
Vero [5]
  CC50: > 40 µM (active)
Vero [6]
  CC50: > 66.6 µM (active)
Vero [7]
  IC50: 17.3 µM (active)

## O=S(=O)(/C(=C/c1ccc(C(F)(F)F)cc1)c1nc2ccccc2[nH]1)c1ccccc1
INS1
  AC50: 4.43 µM (active)
BJ
  EC50: 0.601 µM (active)
[8]
  EC50: 1.68 µM (active)
[9]
  IC50: > 32 µM (inactive)
[10]
  AC50: 3.54 µM (active)
[11]
  EC50: 1.89 µM (active)
Protein RecA
  EC50: 5.85 µM (active)
Paired box protein Pax-8
  AC50: 2.82 µM (active)

## COC(=O)c1c(NC(=O)CN(c2ccccc2)S(C)(=O)=O)sc2c1CCCC2
[12]
  EC50: 0.577 µM (active)

## O=C(NCCCN1CCOCC1)c1ccc2c(c1)N(Cc1ccc(Cl)cc1)C(=O)c1ccccc1[S+]2[O-] (configuration not stated)
[13]
  IC50: > 100 µM (inactive)

## N#C/C(=C\c1cccn1S(=O)(=O)c1cccc([N+](=O)[O-])c1)S(=O)(=O)c1ccc(F)cc1
[14]
  CC50: 100 µM (active)
[15]
  IC50: > 50 µM (inactive)

## O=C1CC(Sc2nnc(-c3ccccc3O)o2)C(=O)N1c1ccccc1 (configuration not stated)
Beta-galactosidase
  IC50: > 66.6 µM (inactive)
[16]
  AC50: 45.2 µM (active)
[17]
  AC50: 12.9 µM (active)
[18]
  AC50: 17.8 µM (active)

## Cc1cc(Cl)ccc1NC(=O)C1CCN(C(=O)c2cccs2)CC1
[19]
  IC50: > 100 µM (inactive)
[20]
  IC50: > 100 µM (inactive)

## O=c1c2ccccc2sn1-c1cc(S(=O)(=O)N2CCOCC2)ccc1N1CCCCC1
[21]
  IC50: 39.4 µM (inactive)
Phosphomannomutase 2
  IC50: > 100 µM (inactive)
[22]
  IC50: 39.2 µM (active)

## COc1ccc(Oc2c(Cl)cnn(-c3cccc(C#N)c3)c2=O)cc1
[23]
  IC50: 2.8 µM (active)
[24]
  IC50: 14.2 µM (inactive)
